The values below come from ChEMBL document CHEMBL4665820, “Discovery of VU6027459: A First-in-Class Selective and CNS Penetrant mGlu Positive Allosteric Modulator Tool Compound” (ACS Med Chem Lett, 2020).

Where only a bound is given, the exact number is not on record here.

Broadly, the IC50 is the concentration at which inhibition is half-maximal. In general, Kp refers to tissue or fluid exposure divided by exposure in the circulation. A word on the Ki: it is the dissociation constant of the complex between target and ligand, obtained from inhibition or displacement. For orientation: inhibition means the share of the control response that was lost under treatment. As usually defined, the fraction unbound is the share of the substance not bound to proteins or other matrix. What is called bioavailability is the share of a dose that reaches the circulation, judged against a reference dose that is usually intravenous. Usually half-life stands for how long it takes for the measured level to halve. Low readings indicate rapid decline, high ones slow decline.

Data set [1] has as its target T1, Metabotropic glutamate receptor 1 (Homo sapiens, UniProt Q13255). In words: Negative allosteric modulation of mGlu1 receptor (unknown origin).
Data set [2] has as its target T2, Metabotropic glutamate receptor 3 (Homo sapiens, UniProt Q14832). Kind of data set: Negative allosteric modulation of mGlu3 receptor (unknown origin).
The target of data set [3] is T3, Metabotropic glutamate receptor 2 (Homo sapiens, UniProt Q14416). Kind of data set: Negative allosteric modulation of mGlu2 receptor (unknown origin).
Data set [4] concerns the target T4, Metabotropic glutamate receptor 4 (Homo sapiens, UniProt Q14833). Kind of data set: Negative allosteric modulation of mGlu4 receptor (unknown origin).
Data set [5] can be described thus: Unbound plasma to brain permeability coefficient, Kp of the compound in rat. The data set is classed as ADME, cell-free. The note with it: read-out: K(p,uu,brain).
Data set [6] deals with T5, Metabotropic glutamate receptor 5 (Homo sapiens, UniProt P41594). Kind of data set: Negative allosteric modulation of mGlu5 receptor (unknown origin).
For data set [7], the target named is T6, Metabotropic glutamate receptor 8 (Homo sapiens, UniProt O00222). Kind of data set: Negative allosteric modulation of mGlu8 receptor (unknown origin).
Data set [8] in a line: Plasma to brain permeability coefficient, Kp of the compound in rat. The data set is classed as ADME, cell-free.
A short description of data set [9]: Unbound plasma to brain permeability coefficient, Kp of the compound in CD-1 mouse at 10 mg/kg, ip measured after 0.5 hrs by LC-MS/MS analysis. The format is ADME, organism-based. The note with it: read-out: K(p,uu,brain).
Data set [10] concerns the target Sodium-dependent dopamine transporter (Homo sapiens, UniProt Q01959). In words: Displacement of […] from recombinant human Dopamine transporter after 120 mins by scintillation counting analysis. The data set is classed as ADME.
In data set [11] the target is T4, Metabotropic glutamate receptor 4. Kind of data set: Positive allosteric modulation of mGlu4 receptor (unknown origin).
Data set [12] addresses dopamine transporter (DAT) (Homo sapiens, UniProt Q01959). Kind of data set: Displacement of […] from recombinant human Dopamine transporter at 10 uM after 120 mins by scintillation counting analysis relative to control. The data set is classed as ADME.
A further data set has as its target hERG (KCNH2) (Homo sapiens, UniProt Q12809). In words: Displacement of [3H]-Astemizole from human recombinant full length ERG channel at 10 uM incubated for 60 mins by scintillation counting analysis relative to control. The note with it: probe [3H]-astemizole.
Data set [13] in a line: Unbound plasma to brain permeability coefficient, Kp of the compound in Sprague-Dawley rat at 0.2 mg/kg, iv measured after 0.25 hrs by LC-MS/MS analysis. The data set is classed as ADME, organism-based. Particulars: read-out: K(p,uu,brain).
Data set [14] can be described thus: Fraction unbound in mouse brain at 5 uM incubated for 6 hrs by equilibrium dialysis based LC-MS/MS analysis. The format is ADME, tissue-based. A general note: In equilibrium dialysis free small molecules cross a membrane that holds back macromolecules.
For data set [15], the target named is T1, Metabotropic glutamate receptor 1. In words: Positive allosteric modulation of mGlu1 receptor (unknown origin).
Data set [16] is described as follows: Hepatic intrinsic clearance in rat liver microsomes at 1 uM preincubated for 5 mins followed by NADPH addition and measured up to 45 mins by LC-MS/MS analysis. The data set is classed as ADME, Microsome. Particulars: read-out: CLH. In general terms: Liver microsomes are vesicles of endoplasmic reticulum, rich in cytochrome P450 enzymes.
Data set [17] can be described thus: Oral bioavailability in Sprague-Dawley rat at 10 mg/kg measured upto 24 hrs by LC-MS/MS analysis. Particulars: in vivo. The format is ADME, organism-based.
The target of data set [18] is T5, Metabotropic glutamate receptor 5. In words: Positive allosteric modulation of mGlu5 receptor (unknown origin).
Data set [19] is described as follows: Plasma to brain permeability coefficient, Kp of the compound in Sprague-Dawley rat at 0.2 mg/kg, iv measured after 0.25 hrs by LC-MS/MS analysis. The data set is classed as ADME, organism-based.
Data set [20] in a line: Fraction unbound in rat brain at 5 uM incubated for 6 hrs by equilibrium dialysis based LC-MS/MS analysis. The data set is classed as ADME, tissue-based.
Data set [21] addresses Sigma non-opioid intracellular receptor 1 (Homo sapiens, UniProt Q99720). Kind of data set: Displacement of [3H]-Pentazocine from human recombinant sigma 1 receptor incubated for 120 mins by scintillation counting analysis relative to control.
Data set [22] in a line: Hepatic intrinsic clearance in mouse liver microsomes at 1 uM preincubated for 5 mins followed by NADPH addition and measured up to 45 mins by LC-MS/MS analysis. The data set is classed as ADME, Microsome. Particulars: read-out: CLH.
Data set [23] has as its target T2, Metabotropic glutamate receptor 3. In words: Positive allosteric modulation of mGlu3 receptor (unknown origin).
Data set [24] in a line: Half-life in Sprague-Dawley rat at 1 mg/kg, iv and 10 mg/kg, po measured up to 24 hrs by LC-MS/MS analysis. The format is ADME, organism-based. Particulars: in vivo.
Data set [25] is described as follows: Fraction unbound in mouse plasma at 5 uM incubated for 4 hrs by equilibrium dialysis based LC-MS/MS analysis. The data set is classed as ADME, cell-free.
Data set [26] addresses T6, Metabotropic glutamate receptor 8. Kind of data set: Positive allosteric modulation of mGlu8 receptor (unknown origin).
The target of data set [27] is T7, Metabotropic glutamate receptor 7 (Rattus norvegicus, UniProt P35400). In words: Positive allosteric modulation of rat mGlu7 expressed in HEK293 cells co- expressing GIRK assessed as potentiation of L-AP4-induced thallium flux incubated for 140 sec by FluoZin2-AM dye based fluorescence analysis. The format is cell-based.
The target in data set [28] is T3, Metabotropic glutamate receptor 2. In words: Positive allosteric modulation of mGlu2 receptor (unknown origin).
Data set [29] in a line: Plasma to brain permeability coefficient, Kp of the compound in CD-1 mouse at 10 mg/kg, ip measured after 0.5 hrs by LC-MS/MS analysis. The data set is classed as ADME, organism-based.
The target of data set [30] is T7, Metabotropic glutamate receptor 7. Kind of data set: Positive allosteric modulation of rat mGlu7 receptor expressed in HEK293 cells co-expressing Gai5 assessed as potentiation of L-AP4-induced calcium mobilization preincubated for 140 secs and treated with EC20 L-AP4 for 125 secs and followed by subsequent addition of EC80 L-AP4 by Fluo-4-AM dye based fluorescence assay. The data set is classed as functional, cell-based. Background: A change in cytosolic calcium serves as a functional read-out for many receptors and channels.

Data set [31] in a line: Fraction unbound in rat plasma at 5 uM incubated for 4 hrs by equilibrium dialysis based LC-MS/MS analysis. The format is ADME, cell-free.

T7 sequence (P35400 whole entry): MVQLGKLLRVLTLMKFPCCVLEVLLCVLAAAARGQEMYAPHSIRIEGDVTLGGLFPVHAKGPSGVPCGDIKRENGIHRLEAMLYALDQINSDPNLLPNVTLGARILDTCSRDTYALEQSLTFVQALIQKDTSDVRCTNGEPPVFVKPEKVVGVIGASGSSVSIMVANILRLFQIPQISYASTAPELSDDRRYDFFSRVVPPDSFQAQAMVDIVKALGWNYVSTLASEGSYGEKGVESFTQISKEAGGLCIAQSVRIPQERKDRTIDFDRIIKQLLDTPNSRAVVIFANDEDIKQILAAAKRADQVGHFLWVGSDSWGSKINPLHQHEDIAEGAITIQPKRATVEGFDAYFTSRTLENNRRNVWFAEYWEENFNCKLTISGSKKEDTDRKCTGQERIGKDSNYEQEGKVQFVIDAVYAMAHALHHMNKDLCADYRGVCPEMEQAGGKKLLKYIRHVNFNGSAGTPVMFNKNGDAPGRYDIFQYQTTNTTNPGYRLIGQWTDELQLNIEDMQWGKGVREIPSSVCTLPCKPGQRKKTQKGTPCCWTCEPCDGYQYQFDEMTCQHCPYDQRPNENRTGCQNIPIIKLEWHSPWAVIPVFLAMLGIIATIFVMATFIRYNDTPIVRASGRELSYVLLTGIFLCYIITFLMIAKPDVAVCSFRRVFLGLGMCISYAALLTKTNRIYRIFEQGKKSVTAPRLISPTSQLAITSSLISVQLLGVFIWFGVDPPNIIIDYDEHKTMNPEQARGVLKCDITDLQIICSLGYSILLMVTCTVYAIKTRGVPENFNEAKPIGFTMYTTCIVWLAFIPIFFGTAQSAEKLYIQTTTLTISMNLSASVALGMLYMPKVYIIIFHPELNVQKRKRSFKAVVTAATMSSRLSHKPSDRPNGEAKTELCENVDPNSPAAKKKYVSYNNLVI
T6 sequence (O00222 whole entry): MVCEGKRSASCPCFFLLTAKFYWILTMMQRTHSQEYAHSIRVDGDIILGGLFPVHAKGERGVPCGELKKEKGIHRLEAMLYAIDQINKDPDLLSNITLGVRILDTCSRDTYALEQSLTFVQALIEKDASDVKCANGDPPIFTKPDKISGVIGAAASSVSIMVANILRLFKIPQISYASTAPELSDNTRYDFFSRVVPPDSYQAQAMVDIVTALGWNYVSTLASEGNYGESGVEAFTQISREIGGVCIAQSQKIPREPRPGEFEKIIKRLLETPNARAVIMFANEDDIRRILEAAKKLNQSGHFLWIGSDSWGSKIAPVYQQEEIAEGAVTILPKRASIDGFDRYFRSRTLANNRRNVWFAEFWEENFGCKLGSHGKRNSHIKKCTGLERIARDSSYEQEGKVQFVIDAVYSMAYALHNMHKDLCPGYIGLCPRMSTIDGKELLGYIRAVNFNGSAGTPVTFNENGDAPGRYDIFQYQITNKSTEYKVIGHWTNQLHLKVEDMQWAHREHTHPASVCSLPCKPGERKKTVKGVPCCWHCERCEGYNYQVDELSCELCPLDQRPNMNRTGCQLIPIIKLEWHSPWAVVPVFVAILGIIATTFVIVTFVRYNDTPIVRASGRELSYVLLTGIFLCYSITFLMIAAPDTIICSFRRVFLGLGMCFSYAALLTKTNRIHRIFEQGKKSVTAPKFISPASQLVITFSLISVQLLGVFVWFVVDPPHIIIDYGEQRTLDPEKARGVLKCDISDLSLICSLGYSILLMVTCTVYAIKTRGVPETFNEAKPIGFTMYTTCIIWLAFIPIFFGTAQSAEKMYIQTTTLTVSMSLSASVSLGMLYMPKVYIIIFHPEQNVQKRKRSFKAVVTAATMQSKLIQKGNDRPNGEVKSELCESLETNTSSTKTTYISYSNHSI
T4 sequence (Q14833 whole entry): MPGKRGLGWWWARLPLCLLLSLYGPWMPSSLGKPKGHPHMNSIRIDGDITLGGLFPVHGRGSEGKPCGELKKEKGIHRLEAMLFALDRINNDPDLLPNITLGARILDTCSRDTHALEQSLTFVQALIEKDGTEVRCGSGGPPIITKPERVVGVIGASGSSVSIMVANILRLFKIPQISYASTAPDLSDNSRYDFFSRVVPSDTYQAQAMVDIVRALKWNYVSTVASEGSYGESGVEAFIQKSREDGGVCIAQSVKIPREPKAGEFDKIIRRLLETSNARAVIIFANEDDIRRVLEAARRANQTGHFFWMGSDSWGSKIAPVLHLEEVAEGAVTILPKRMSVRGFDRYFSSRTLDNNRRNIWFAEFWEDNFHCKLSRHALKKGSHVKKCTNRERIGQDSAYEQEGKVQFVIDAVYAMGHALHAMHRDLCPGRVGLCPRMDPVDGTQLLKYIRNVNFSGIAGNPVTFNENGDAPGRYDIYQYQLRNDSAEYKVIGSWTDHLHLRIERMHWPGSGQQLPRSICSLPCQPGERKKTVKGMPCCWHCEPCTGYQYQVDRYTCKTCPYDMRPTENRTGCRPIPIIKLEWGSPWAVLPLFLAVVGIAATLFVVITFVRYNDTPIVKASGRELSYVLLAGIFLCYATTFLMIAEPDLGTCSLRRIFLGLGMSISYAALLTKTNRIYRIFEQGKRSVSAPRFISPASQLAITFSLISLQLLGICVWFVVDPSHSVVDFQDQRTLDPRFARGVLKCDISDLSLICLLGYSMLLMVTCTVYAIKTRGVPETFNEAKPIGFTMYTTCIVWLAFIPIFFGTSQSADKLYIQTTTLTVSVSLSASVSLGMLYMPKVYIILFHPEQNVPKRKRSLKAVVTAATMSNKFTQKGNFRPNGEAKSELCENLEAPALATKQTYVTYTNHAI
T5 sequence (P41594 whole entry): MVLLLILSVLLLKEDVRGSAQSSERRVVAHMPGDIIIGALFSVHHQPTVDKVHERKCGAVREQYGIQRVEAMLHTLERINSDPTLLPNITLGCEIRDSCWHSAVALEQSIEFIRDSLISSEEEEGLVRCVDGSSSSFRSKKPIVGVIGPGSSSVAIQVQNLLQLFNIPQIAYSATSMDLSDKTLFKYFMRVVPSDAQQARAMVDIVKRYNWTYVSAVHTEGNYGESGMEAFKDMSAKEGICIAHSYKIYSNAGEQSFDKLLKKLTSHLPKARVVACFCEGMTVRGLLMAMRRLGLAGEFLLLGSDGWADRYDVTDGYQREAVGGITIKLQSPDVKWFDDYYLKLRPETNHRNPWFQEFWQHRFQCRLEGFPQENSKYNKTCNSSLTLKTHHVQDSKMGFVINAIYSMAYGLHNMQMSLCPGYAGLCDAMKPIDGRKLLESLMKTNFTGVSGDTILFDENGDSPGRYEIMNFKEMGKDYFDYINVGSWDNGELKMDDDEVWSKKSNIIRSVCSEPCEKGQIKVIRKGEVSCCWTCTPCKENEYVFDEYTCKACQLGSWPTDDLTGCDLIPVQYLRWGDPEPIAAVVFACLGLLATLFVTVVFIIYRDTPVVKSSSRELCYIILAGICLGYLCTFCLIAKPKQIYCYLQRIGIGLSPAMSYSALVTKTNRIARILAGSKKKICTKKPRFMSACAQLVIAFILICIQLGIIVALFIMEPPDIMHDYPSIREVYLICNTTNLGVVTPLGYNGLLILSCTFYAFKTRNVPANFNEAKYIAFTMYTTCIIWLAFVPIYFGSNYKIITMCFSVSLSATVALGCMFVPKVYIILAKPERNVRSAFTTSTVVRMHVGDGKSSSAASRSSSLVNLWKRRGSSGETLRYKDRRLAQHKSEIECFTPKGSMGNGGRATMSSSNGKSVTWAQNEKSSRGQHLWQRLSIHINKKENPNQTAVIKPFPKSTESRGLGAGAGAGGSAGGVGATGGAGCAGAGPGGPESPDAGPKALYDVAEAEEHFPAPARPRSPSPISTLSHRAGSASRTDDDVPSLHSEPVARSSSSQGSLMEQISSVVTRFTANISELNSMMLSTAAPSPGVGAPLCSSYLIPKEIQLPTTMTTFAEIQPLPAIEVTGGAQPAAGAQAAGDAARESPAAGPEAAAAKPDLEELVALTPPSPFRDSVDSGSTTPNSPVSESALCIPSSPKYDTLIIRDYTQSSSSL
T3 sequence (Q14416 whole entry): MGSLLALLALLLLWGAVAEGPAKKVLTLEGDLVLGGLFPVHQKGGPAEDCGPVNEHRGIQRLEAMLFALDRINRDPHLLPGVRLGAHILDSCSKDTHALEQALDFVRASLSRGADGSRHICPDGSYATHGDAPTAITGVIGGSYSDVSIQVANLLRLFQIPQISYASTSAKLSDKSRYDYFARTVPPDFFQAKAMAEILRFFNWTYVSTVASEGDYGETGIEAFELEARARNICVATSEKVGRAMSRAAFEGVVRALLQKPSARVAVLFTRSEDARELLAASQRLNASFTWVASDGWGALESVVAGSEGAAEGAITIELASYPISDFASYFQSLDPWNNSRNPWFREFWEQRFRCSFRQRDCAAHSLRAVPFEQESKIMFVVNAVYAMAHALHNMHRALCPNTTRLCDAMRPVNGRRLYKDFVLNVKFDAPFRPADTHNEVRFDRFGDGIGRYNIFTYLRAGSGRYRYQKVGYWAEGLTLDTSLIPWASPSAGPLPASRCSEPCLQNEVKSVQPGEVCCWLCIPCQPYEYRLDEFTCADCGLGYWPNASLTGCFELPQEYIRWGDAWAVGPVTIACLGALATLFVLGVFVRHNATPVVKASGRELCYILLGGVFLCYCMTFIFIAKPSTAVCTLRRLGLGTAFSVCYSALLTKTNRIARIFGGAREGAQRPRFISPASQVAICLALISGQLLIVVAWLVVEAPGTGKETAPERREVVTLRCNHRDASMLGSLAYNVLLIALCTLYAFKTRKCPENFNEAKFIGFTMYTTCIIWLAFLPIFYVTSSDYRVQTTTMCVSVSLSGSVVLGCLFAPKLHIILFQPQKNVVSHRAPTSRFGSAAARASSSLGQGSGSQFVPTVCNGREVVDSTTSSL
Sequence of Sigma non-opioid intracellular receptor 1 (Q99720 whole entry): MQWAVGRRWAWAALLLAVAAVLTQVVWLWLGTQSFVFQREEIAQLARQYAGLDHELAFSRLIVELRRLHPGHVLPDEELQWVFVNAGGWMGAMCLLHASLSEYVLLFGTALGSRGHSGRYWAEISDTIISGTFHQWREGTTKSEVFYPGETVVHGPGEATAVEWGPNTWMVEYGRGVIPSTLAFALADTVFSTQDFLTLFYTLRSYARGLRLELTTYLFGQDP

On to `CCOC(=O)c1cnc2c(OC)cccc2c1N1CCN(c2ccccc2F)CC1`, for which the IC50 in data set [1], in data set [2], in data set [3], in [4], in data set [6] and in data set [7] was more than 30 µM in each case. Also, the Kp uu in data set [5] is 0.96. The Kp in [8] turned out to be 4.7.
On to `[2H]C([2H])([2H])Oc1cc(F)cc2c(N3CCN(c4ccccc4F)CC3)c(C#N)cnc12`, for which the Kp uu at 0.5 h in [9] turned out to be 0.23. Besides, the Ki in data set [10] is more than 10 µM. The EC50 was more than 30 µM in data set [11]; more than 30 µM in data set [15]; more than 30 µM in [18]; more than 30 µM in data set [23]; more than 10 µM in data set [26]; 0.99 µM in data set [27]. The EC50 in data set [28] is more than 30 µM; in [30] (read-out: EC50), 1.1 µM; in [30] (read-out: pEC50 (converted)) it was 1.58 µM. Further, the inhibition at 2 h, 10 µM in data set [12] is less than 50%. Further, the inhibition at 1 h, 10 µM at hERG (KCNH2) was less than 50%. In addition, the Kp uu at 0.25 h in data set [13] was found to be 0.96. The results for the fraction unbound at 6 h, 5 µM in data set [14] and in data set [20] were 0.001 and 0.002, respectively. Besides, the CLint scaled at 1 µM came out at 46.9 mL/min/kg in data set [16] and 84.4 mL/min/kg in data set [22]. In addition, the bioavailability in data set [17] was 69.5%. Also, the Kp at 0.25 h in data set [19] stood at 4.78. The IC50 in data set [21] was 3.5 µM. This compound gave a half-life in data set [24] of 7.5 h. Besides, the fraction unbound at 4 h, 5 µM in [25] and in data set [31] was 0.01 each time. The Kp at 0.5 h in data set [29] came out at 2.74.
